{"source": "patent US5747503A", "about": "“Selective inhibitors of biogenic amine transporters” (priority 1996, dated 1998)", "key": {"DA transporter": {"molecular_target": "T1, DA transporter (Rattus norvegicus, UniProt P23977)", "T1 construct": "Striata were dissected using glass manipulators; from tissue; host or cells: striatum of male Sprague-Dawley rats, membranes", "T1 sequence (P23977 whole entry)": "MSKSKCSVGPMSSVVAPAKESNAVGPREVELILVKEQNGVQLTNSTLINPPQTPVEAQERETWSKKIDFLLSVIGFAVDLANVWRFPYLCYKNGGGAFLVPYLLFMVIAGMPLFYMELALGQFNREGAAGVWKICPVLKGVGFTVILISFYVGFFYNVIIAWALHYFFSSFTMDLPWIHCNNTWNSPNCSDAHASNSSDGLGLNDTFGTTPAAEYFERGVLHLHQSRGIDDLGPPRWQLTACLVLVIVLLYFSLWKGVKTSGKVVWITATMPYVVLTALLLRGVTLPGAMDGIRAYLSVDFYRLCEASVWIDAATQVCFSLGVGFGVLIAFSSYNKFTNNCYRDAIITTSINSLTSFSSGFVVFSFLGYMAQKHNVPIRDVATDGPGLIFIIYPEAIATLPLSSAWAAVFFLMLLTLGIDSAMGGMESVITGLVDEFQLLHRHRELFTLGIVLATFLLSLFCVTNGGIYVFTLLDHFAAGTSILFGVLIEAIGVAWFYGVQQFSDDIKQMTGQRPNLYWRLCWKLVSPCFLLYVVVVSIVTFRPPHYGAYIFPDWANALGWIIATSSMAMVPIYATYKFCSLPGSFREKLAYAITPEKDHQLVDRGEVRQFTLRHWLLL", "experiment": "[^3 H]CFT binding to DA transporter", "procedure": "For [^3 H]J2B-carbomethoxy-3B-(4-fluorophenyl)-tropane (CFT, WIN35,428) binding assays, male Sprague-Dawley rats (200 to 300 gm) were anesthetized with C02 gas, and decapitated. Striata were dissected using glass manipulators, placed in small plastic containers, and then allowed to freeze by placing the container in dry ice.\nStriata collected in this way were stored at […]. On the day of the assay, each striatum was placed in ice-cold binding buffer (BB: 55.2 mM sodium phosphate buffer, pH 7.4, 5 ml per caudate), and homogenized while still frozen with a Polytron. The homogenate was centrifuged for 10 min at 30,000×g, and the pellet was resuspended in an equal volume of BB. The homogenate was recentrifuged, and the pellet was resuspended in an equal volume of BB. An aliquot was saved for determination of protein (0.5 ml), and the remaining homogenate was brought up to a final volume of 22 ml/striatum using ice-cold BB. […] Aliquots of membranes were then used in the radioligand binding assays.\n(§1) The [^3 H]nisoxetine assay for the norepinephrine transporter (NE) was carried out as described (Rothman, et al. (1993), supra; Tejani-Butt, S. M., et al. Eur. J. Pharmacol. 191:239-243 (1990)). DA transporters were labeled with [^3 H)CFT with minor modifications of published protocols (Madras, B. K., et al. Mol. Pharmacol. 36: 518-524 (1989)). Briefly, 12×75 mm polystyrene test tubes were prefilled with 100 μl of drug, 100 μl of radiolabeled (1 nM final concentration), 50 μl of buffer. Drugs were dissolved in BB containing 1 mg/ml bovine serum albumin (BB/BSA). Radioligands were made to a final concentration in a protease inhibitor cocktail containing 1 mg/ml BSA {BB containing chymostatin (25 μg/ml), leupeptin (25 μg/ml), EDTA (100 μM), and EGTA (100 μM)}. The assay was initiated by the addition of 750 μl of membranes, prepared as described above. Brandel cell harvesters were used to filter the samples over Whatman GF/B filters, which were presoaked in wash buffer (ice-cold 10 mM TRIS-HCL, pH 7.4 containing 150 mM NaCl) containing 2% polyethylenimine. In this procedure, samples were filtered and then washed with two 4 ml aliquots of ice-cold wash buffer. Nonspecific binding was defined using 10 μM (final concentration) GBR12909. All subsequent steps were identical to those described above.\n(§2) Inhibition curves were fit to the two parameter logistic equation for the best-fit estimates of the IC50 using nonlinear least squares curve fitting methods as previously described (Rothman et al. (1993), supra); Jones, S. M. and Rogawski, M. A. Mol. Neuropharmacol. 2: 303-310 (1992)).\n(§3) Synaptosomal uptake and ligand binding assays were conducted as described\n(§4) Preliminary experiments were conducted to determine the doserange\n(§5) The data of two experiments were\n(§6) pooled, and fit to the two parameter logistic equation for the bestfit"}, "[^3 H]DA uptake": {"tested_on": "[^3 H]DA uptake", "experiment": "Synaptosomal [^3 H]DA uptake inhibition", "type": "biochemical, rat", "settings": "for IC50: Table 2, nM ± SD, rat striatum synaptosomes", "procedure": "Synaptosomal uptake assays were carried out as described (Rothman et al. (1993), supra). Briefly, synaptosomes were prepared by homogenization of rat striatum (for [^3 H]DA reuptake) or whole rat brain minus cerebellum (for [^3 H]5-HT reuptake) in ice-cold 10% sucrose, using a Potter-Elvehjem homogenizer. After a 1000×g centrifugation for 10 min at 4° C., the supernatants were retained on ice. The uptake assays were initiated by the addition of 100 μl of synaptosomes to 12×75 mm polystyrene test tubes, which were prefilled with 750 μl of [^3 H]ligand (2 nM [^3 H]5-HT or 5 nM [^3 H]DA) in a Krebs-phosphate buffer (pH 7.4), which contained ascorbic acid (1 mg/ml) and pargyline (50 μM) (buffer), 100 μl of test drugs made up in buffer containing 1 mg/ml bovine serum albumin, and 50 μl of buffer. The [^3 H]5-HT reuptake experiments were conducted in the presence of 100 nM nomifensine and […] GBR12935 in order to block any possible reuptake into NE and DA nerve terminals. […] The nonspecific uptake of each [^3 H]ligand was measured by incubations in the presence of 1 μM GBR12909 ([^3 H]DA) and 10 μM fluoxetine ([^3 H]5-HT). The incubations were terminated after a 15 min ([^3 H]DA) or 30 min ([^3 H]5-HT) incubation at 25° C. by adding 4 ml of wash buffer (10 mM TRIS-HCl, pH 7.4 containing 0.9% NaCl at 25° C.), followed by rapid filtration over Whatman GF/B filters and one additional wash cycle. […] The Krebs-phosphate buffer contained 154.5 mM NaCl, 2.9 mM KCl, 1.1 mM CaCl2, 0.83 mM MgCl2 and 5 mM glucose. The tritium retained on the filters was counted, in a Taurus beta counter, after an overnight extraction into ICN Cytoscint cocktail.\nas §2, §3\nabove. Preliminary experiments were conducted to determine the doserange\nEach [^3 H] ligand was displaced\nby 10 concentrations of test drug. The data of two experiments were\nas §6\nestimates of the IC50 reported above."}, "PCP site 1": {"molecular_target": "PCP site 1", "experiment": "[^3 H](+)-MK801 binding to PCP site 1", "set-up": "species or system guinea pig", "procedure": "Large batches of frozen membranes were prepared with minor modifications of published procedures (Rothman, et al. (1989), supra). Twenty to thirty frozen guinea pig brains with cerebellum were thawed for 15 minutes and homogenized with a Polytron in ice-cold 5 mM Tris-HCl, pH 8.0 (10 ml/brain). The homogenate was centrifuged at 37,000×g for 10 minutes, and the pellet was washed by resuspension in the same volume of buffer followed by recentrifugation. The pellets were resuspended in an equal volume of 5 mM Tris-HCl, pH 8.0, and the concentration was adjusted to 50 mM by the addition of 1M Tris-HCl, pH 8.0. The homogenate was centrifuged for 10 min at 37,000×g. The pellets were then washed three times by resuspension and centrifugation using 50 mM Tris-HCl, pH 8.0. The final pellets were resuspended in the Tris-HCl buffer (0.5 ml/brain), pooled and 1 ml aliquots were distributed to microfuge tubes, which were stored at -70° for assay. […]\nas §2\n^a The binding assays for PCP (site 2) and PCP (site 1) were conducte\nas previously reported (Rothman, R. B., et al., In: Multiple Sigma and PC\nReceptor Ligands: Mechanisms for Neuromodulation and Protection 307-330\n(Domino, E. F. and Kamenka, J. M., eds., 1992) using [^3 H]TCP in the\npresence of (+)MK801 for site 2 and [^3 HMK801 for site 1 except that"}, "NE transporter": {"molecular_target": "T2, NE transporter (Rattus norvegicus, UniProt Q63380)", "T2 construct": "from tissue; host or cells: brain membranes prepared by a cited method", "T2 sequence (Q63380 1-617)": "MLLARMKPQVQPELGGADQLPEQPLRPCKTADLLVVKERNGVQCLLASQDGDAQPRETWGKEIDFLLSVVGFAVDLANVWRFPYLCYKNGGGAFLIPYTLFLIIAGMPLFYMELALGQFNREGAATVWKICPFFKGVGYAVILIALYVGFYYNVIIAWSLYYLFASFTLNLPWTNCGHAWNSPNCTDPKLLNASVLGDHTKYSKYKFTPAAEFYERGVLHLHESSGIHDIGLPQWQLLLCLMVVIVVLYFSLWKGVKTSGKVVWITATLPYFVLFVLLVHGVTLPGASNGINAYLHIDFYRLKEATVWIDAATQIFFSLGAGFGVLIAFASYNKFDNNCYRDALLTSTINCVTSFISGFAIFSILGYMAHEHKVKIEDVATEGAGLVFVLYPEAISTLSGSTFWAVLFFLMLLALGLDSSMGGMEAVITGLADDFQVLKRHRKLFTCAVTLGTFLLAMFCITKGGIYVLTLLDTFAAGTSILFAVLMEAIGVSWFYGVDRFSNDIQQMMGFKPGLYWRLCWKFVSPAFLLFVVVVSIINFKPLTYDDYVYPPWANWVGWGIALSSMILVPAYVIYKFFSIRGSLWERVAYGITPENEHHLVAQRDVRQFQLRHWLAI", "experiment": "[^3 H]Nisoxetine binding to NE transporter", "procedure": "Membranes for the [^3 H]nisoxetine assay were prepared as described (Rothman, R. B., et al. Synapse 14: 34-39 (1993)).\nas §1, §2, §3, §4, §5, §6"}, "[1]": {"settings": "Table 2, nM ± SD, rat striatum, read-out: [^3 H]CFT Binding IC50"}, "[2]": {"settings": "Table 2, nM ±, read-out: [^3 H]Nisoxetine Binding IC50"}}, "note": "Entries after “also recorded” stand apart in the source; their conditions may differ. Where two headings read alike, the source gives them in different places.", "data": [{"smiles": "CNC1CC(c2ccc(Cl)c(Cl)c2)c2ccccc21", "note": "(stereo not shown) [Indatraline]", "values": [{"measurement": "[^3 H]CFT binding inhibition in words", "setting": "DA transporter", "value": "potently inhibited; also recorded: potent inhibitor"}, {"measurement": "[^3 H]DA uptake inhibition in words", "setting": "[^3 H]DA uptake", "value": "potently inhibited; also recorded: potent inhibitor"}, {"measurement": "IC50", "setting": "[^3 H]DA uptake", "value": "3.23 ± 0.45", "unit": "nM"}, {"measurement": "IC50", "setting": "PCP site 1", "value": "> 100000", "unit": "nM"}, {"measurement": "affinity for PCP site 1 in words", "setting": "PCP site 1", "value": "negligible affinity"}, {"measurement": "IC50", "setting": "PCP site 1; Table 2, nM ± SD", "value": "> 100000", "unit": "nM"}]}, {"smiles": "c1ccc(C2(N3CCCCC3)CCCCC2)cc1", "note": "[PCP, phencyclidine]", "values": [{"measurement": "IC50", "setting": "DA transporter", "value": "> 1500", "unit": "nM"}, {"measurement": "[^3 H]CFT binding inhibition in words", "setting": "DA transporter", "value": "lower affinity"}, {"measurement": "IC50", "setting": "[^3 H]DA uptake", "value": 347, "unit": "nM"}, {"measurement": "IC50", "setting": "NE transporter", "value": "16630 ± 98", "unit": "nM"}, {"measurement": "[^3 H]nisoxetine binding / NE transporter affinity in words", "setting": "NE transporter", "value": "very low affinity"}, {"measurement": "IC50", "setting": "PCP site 1; Table 1, [^3 H]MK801", "value": "117 ± 3", "unit": "nM"}, {"measurement": "IC50", "setting": "PCP site 1; Table 2, nM ± SD", "value": "117 ± 3", "unit": "nM"}]}, {"smiles": "CN1[C@H](Cc2ccccc2)C[C@H]2Cc3ccccc3[C@H]21", "note": "(relative stereo) [RTI-4793-14, (2RS, 3aSR, 8aRS)-1,2,3a,8,8a-Hexahydro-2-benzyl-1-methyl-indeno[1,2-b]pyrrole]", "values": [{"measurement": "[^3 H]CFT binding inhibition in words", "setting": "DA transporter", "value": "moderate potency"}, {"measurement": "IC50", "setting": "DA transporter; [1]", "value": "850 ± 101", "unit": "nM"}, {"measurement": "[^3 H]DA uptake inhibition in words", "setting": "[^3 H]DA uptake", "value": "moderate potency"}, {"measurement": "IC50", "setting": "[^3 H]DA uptake", "value": "547 ± 20", "unit": "nM"}, {"measurement": "[^3 H]nisoxetine binding / NE transporter affinity in words", "setting": "NE transporter", "value": "moderate potency"}, {"measurement": "IC50", "setting": "NE transporter; [2]", "value": "609 ± 48", "unit": "nM"}, {"measurement": "IC50", "setting": "PCP site 1", "value": "> 36000", "unit": "nM"}, {"measurement": "affinity for PCP site 1 in words", "setting": "PCP site 1", "value": "low affinity"}, {"measurement": "IC50", "setting": "PCP site 1; Table 1, [^3 H]MK801", "value": "> 20000", "unit": "nM"}, {"measurement": "IC50", "setting": "PCP site 1; Table 2, nM ± SD", "value": "> 36000", "unit": "nM"}, {"measurement": "IC50", "setting": "PCP site 1; Table 3, guinea pig membranes", "value": "> 2000", "unit": "nM"}]}, {"smiles": "C[C@]12N[C@H](Cc3ccccc31)c1ccccc12", "note": "[(+)-MK801]", "values": [{"measurement": "[^3 H]CFT binding inhibition in words", "setting": "DA transporter", "value": "negligible affinity"}, {"measurement": "IC50", "setting": "DA transporter; [1]", "value": "> 15000", "unit": "nM"}, {"measurement": "[^3 H]DA uptake inhibition in words", "setting": "[^3 H]DA uptake", "value": "negligible affinity"}, {"measurement": "IC50", "setting": "[^3 H]DA uptake", "value": "> 10000", "unit": "nM"}, {"measurement": "[^3 H]nisoxetine binding / NE transporter affinity in words", "setting": "NE transporter", "value": "negligible affinity"}, {"measurement": "IC50", "setting": "NE transporter; [2]", "value": "6580 ± 860", "unit": "nM"}, {"measurement": "affinity for PCP site 1 in words", "setting": "PCP site 1", "value": "high affinity"}, {"measurement": "IC50", "setting": "PCP site 1; Table 1, [^3 H]MK801", "value": "4.58 ± 0.19", "unit": "nM"}, {"measurement": "IC50", "setting": "PCP site 1; Table 2, nM ± SD", "value": "4.58 ± 0.19", "unit": "nM"}, {"measurement": "greater potency at PCP site 1 than PCP", "setting": "PCP site 1; versus PCP", "value": 25, "unit": "fold"}]}]}
